Experimental data published in article PMC11312998, “Molecular Pro-Apoptotic Activities of Flavanone Derivatives in Cyclodextrin Complexes: New Implications for Anticancer Therapy” (International Journal of Molecular Sciences, 2024).

Experiments:
Hec-1-A = test: Mitochondrial potential (ΔΨm), JC-1 method; assay type: cell-based, human; conditions: IC50 concentration, 24 h
From the text: (§1) 5,5,6,6-Tetrachloro-1,1,3,3-tetraethylbenzimidazolylcarbocyanine iodide (JC-1) is a cationic carbocyanine dye commonly used as a fluorescent probe to detect mitochondrial membrane depolarization. In living cells with an intact mitochondrial membrane, the lipophilic JC-1 penetrates the negatively charged mitochondrial matrix as a monomer. It then forms fluorescent aggregates with red-orange fluorescence (λex = 514 nm, λem = 590 nm). During depolarization of the mitochondrial membrane or in apoptotic cells, the concentration of JC-1 decreases, and the aggregates disintegrate into monomers emitting green fluorescence (λex = 514 nm, λem = 529 nm). The fluorescence ratio of aggregates (λem = 590 nm) and monomers (λem = 529 nm)—590 nm/529 nm—reflects the level of damage to the mitochondrial membrane.
(§2) The cells were seeded in black 96-well fluorometric microplates at a density of 10 × 10^3 cells per well. […] After incubation with the compounds, the medium was removed, the cell monolayer in the wells was washed twice with HBSS (140 mM NaCl, 5 mM KCl, 0.8 mM MgCl2, 1.8 mM CaCl2, 1 mM Na2HPO4, 10 mM HEPES and 1% glucose) and 50 μL of JC-1 solution in HBSS was added to each well (final probe concentration 5 μmol/L). Cells were incubated with the probe for 30 min in the dark in an incubator (37 °C). After incubation, the probe was removed and replaced with fresh HBSS buffer. Fluorescence measurements (Perkin-Elmer LS-5B spectrofluorometer, MA, USA) of JC-1 monomers and aggregates were made at the following excitation and emission wavelengths: λex = 514 nm, λem = 529 nm (monomers), λex = 514 nm, λem = 590 nm (aggregates). The results of the tested samples are presented as the percentage fluorescence ratio of JC-1 aggregates and JC-1 monomers relative to the fluorescence ratio of JC-1 aggregates and JC-1 monomers of the control, which was assumed to be 100%.
(§3) A positive control was formed of cells pre-incubated with 5 µmol/L carbonyl cyanide m-chlorophenylhydrazone (CCCP), a chemical inhibitor of oxidative phosphorylation that acts by uncoupling the protons flowing along the electrochemical gradient from phosphorylation.

Ishikawa [1] = test: Mitochondrial potential (ΔΨm), JC-1 method; assay type: cell-based, human; conditions: IC50 concentration, 24 h
From the text: as §1, §2, §3

MCF-7 [2] = test: Mitochondrial potential (ΔΨm), JC-1 method; assay type: cell-based, human; conditions: IC50 concentration, 24 h
From the text: as §1, §2, §3

MDA-MB-231 = test: Nitric oxide (RNS) generation, DAF-FM diacetate probe; assay type: cell-based, human; conditions: IC50 concentration, 24 h
Protocol: Diaminofluorescein-FM diacetate (DAF-FM diacetate, Invitrogen, Carlsbad, CA, USA), is a widely employed cell permeant fluorescent reagent for the detection and quantification of reactive nitrogen species (RNS), particularly nitric oxide (NO). […] However, upon reaction with NO, it undergoes a transformation that yields a highly fluorescent benzotriazole derivative (excitation/emission maxima: λex = 495, λem = 515 nm).
The cells were seeded in black 96-well fluorometric microplates at a density of 10 × 10^3 cells per well. […] After incubation with the compounds, the medium was removed, the cell monolayer in the wells was washed twice with HBSS (140 mM NaCl, 5 mM KCl, 0.8 mM MgCl2, 1.8 mM CaCl2, 1 mM Na2HPO4, 10 mM HEPES and 1% glucose) and 50 μL of DAF-FM diacetate solution in HBSS was added to each well (final probe concentration 5 μmol/L). Cells were incubated with the probe for 30 min in the dark in an incubator (37 °C). After incubation, the probe was removed and replaced with fresh HBSS buffer and then incubated for an additional 30 min to allow for complete de-esterification of the intra cellular diacetates. After this time, the fluorescence was measured. The measurement was performed at the following excitation and fluorescence emission wavelengths: λex = 495 nm/λem = 515 nm. Fluorescence was measured on a Perkin-Elmer LS-5B spectrofluorometer (MA, USA). Fluorescence intensity values for control cells were arbitrarily set as 100%. The results are presented as percentages of control cells calculated on the basis of a comparison of the fluorescence intensity ratio of test samples and controls (100%) (fluorescence of samples was calculated as Δf in relation to the control).

colon cancer lines = test: GSH concentration in cancer cells (other studies, not yet published); assay type: cell-based; conditions: results not yet published
Ishikawa [3] = test: Superoxide anion generation, DHE probe; assay type: cell-based, human; conditions: IC50 concentration, 24 h
Protocol: (§4) The level of superoxide anion (O2^•−) was determined by microplate spectrofluorimetry with dihydroethidium (hydroethidine, DHE) (Life Technologies, Carlsbad, CA, USA), which is the most commonly used fluorogenic probe for monitoring the intracellular production of superoxide anion O2^•− [41]. […] Thanks to this shift, DHE can be used as a sensitive probe for cellular ROS. The reaction between superoxide and DHE generates a highly specific red fluorescent product, 2-hydroxyethidium (2-OH-E^+).
(§5) The cells were seeded in black 96-well fluorometric microplates at a density of 10 × 10^3 cells per well. […] After incubation, the medium was removed, the cell monolayer in the wells was washed twice with HBSS (140 mM NaCl, 5 mM KCl, 0.8 mM MgCl2, 1.8 mM CaCl2, 1 mM Na2HPO4, 10 mM HEPES and 1% glucose) and 50 μL of DHE solution in HBSS was added to each well (final probe concentration 5 μmol/L). Cells were incubated with the probe for 30 min in the dark in an incubator (37 °C), and then fluorescence was measured. The measurement was performed at the following excitation and fluorescence emission wavelengths: λex = 498 nm/λem = 582 nm. Fluorescence measurements were made on a Perkin-Elmer LS-5B spectrofluorometer (MA, USA). Fluorescence intensity values for control cells were arbitrarily set as 100%. The results are presented as percentages of control cell values, calculated relative to the fluorescence intensity of the controls (100%): sample fluorescence was calculated as Δf in relation to the controls.

MCF-7 [4] = test: Superoxide anion generation, DHE probe; assay type: cell-based, human; conditions: IC50 concentration, 24 h
Protocol: as §4, §5

[5] = test system: extrinsic coagulation pathway; test: Prothrombin time (PT); assay type: biochemical, human; conditions: 1–100 µmol/L
Protocol: Basic coagulation parameters were determined using Bio-Ksel reagents (Grudziądz, Poland): APTT reagent, calcium chloride, Bio-Ksel PT plus reagent (tromboplastin and solvent) and thrombin (3.0 UNIH/mL) for TT experiments. The methods were calibrated and the coefficient of variation (PT, APTT, TT experiments) was calculated using a calibrator (Bio-Ksel, Grudziadz, Poland), normal plasma (Bio-Ksel, Grudziądz, Poland) and water for injection (Polpharma, Gdańsk, Poland).
Control samples consisting of distilled water and methanol were tested. All methods were validated using Bio-Ksel normal plasma, which was dissolved in water for injection (Polpharma, Gdańsk, Poland). The reference values for each test are as follows: PT: 9.7–13.8 s; INR: 0.9–1.2; APTT: 28.2–42.3 s; TT: 11.0–16.5 s for 3.0 UNIH/mL of thrombin.

| SMILES | hyperpolarization of ΔΨm compared to control (Hec-1-A) | decrease in ΔΨm (Ishikawa [1]) | decrease in ΔΨm (depolarization) compared to the control (MCF-7 [2]) | increase in nitric oxide level (DAF-FM) (MDA-MB-231) | GSH concentration in cancer cells (in words) (colon cancer lines) | changes in ΔΨm (in words) (Hec-1-A) | hyperpolarization of ΔΨm (MCF-7 [2]) | greater superoxide anion level relative to control (DHE probe) (Ishikawa [3]) | greater superoxide anion level relative to control (DHE probe) (MCF-7 [4]) | prothrombin time (PT), difference compared to controls (in words) [5] | hyperpolarization of mitochondrial membranes relative to controls (Ishikawa [1]) |
| --- | --- | --- | --- | --- | --- | --- | --- | --- | --- | --- | --- |
| O=C1/C(=C/c2ccccc2)COc2ccccc21 [Compound 1] | approximately 30% | approximately 30% | approximately 17% | approximately 20% | decrease in GSH concentration | – | – | – | – | – | – |
| COc1cccc(/C=C2/C(=O)c3ccccc3OC2c2ccccc2)c1 (stereo not drawn) [Compound 3] | – | about 15% | – | approximately 15% | decrease in GSH concentration | no changes in ΔΨm were observed | approximately 30% | approximately 20% | approximately 20% | No statistically significant differences | – |
| O=C1/C(=C/c2ccccc2)C(c2ccccc2)Oc2ccccc21 (stereo not drawn) [Compound 5] | – | – | – | approximately 15% | decrease in GSH concentration | no changes in ΔΨm were observed | ~40% | ~30% | ~30% | No statistically significant differences | approximately 30% |
